“Also recorded” adds a separate entry of the source.
Key:
[1] = orally delivered; mice, rats, hamsters and guinea pigs; cited from earlier work
[2] = test system: myocardial infarction induced interstitial fibrosis; assay: Anti-fibrosis effect in a rat model of myocardial infarction (interstitial fibrosis, Masson's Trichrome staining); format: in vivo
Description: The present study assessed the effect of dextran sulfate in inhibiting or reducing fibrosis in a rat model of myocardial infarction (MI).
The myocardial infarction model in rat involved ligations of the left coronary artery permanently with an intramural stitch. The surgery caused obstruction of the blood flow and subsequently to severe ischemic damage and cardiac walls infarct.
In total 120 female SD rats having an average body weight of 178 g at study initiation (Day 0) were obtained from Harlan Laboratories, Israel. Animals were fed ad libitum a commercial rodent diet (Teklad Certified Global 18% Protein Diet). Animals had free access to autoclaved and acidified drinking water (pH between 2.5 and 3.5) obtained from the municipality supply. Animals were housed under standard laboratory conditions, air conditioned and filtered (HEPA F6/6) with adequate fresh air supply (minimum air changes/hour). Animals were kept in a climate controlled environment with a temperatures range of 20-24° C. and RH range of 30-70% with 12 hours light and 12 hours dark cycle.
Dextran sulfate with an average molecular weight within a range of 5-7 kDa was dissolved in 0.9% NaCl (saline) (Teva Pharmaceutical Industries Ltd) to be injected subcutaneous at doses of 15 mg/kg or 3 mg/kg. […]
Masson's Trichrome Staining was used for fibrosis evaluation. […] The sections were visualized in a computer-imaging system and infarct size was marked and calculated using the ImageJ program. For each animal, five serial sections including one containing the ligature were analyzed and the mean value of all sections for each heart was treated as one value for statistical analysis. […]
Interstitial fibrosis in the marginal area of the infarct was estimated manually in heart sections stained with Masson's Trichrome Staining. The area of interstitial fibrosis was calculated as the percent of the total area of the left ventricle. For each rat five cross-sections were analyzed.

Substance: Dextran sulfate
- induction of colitis and intestinal fibrosis [1]: known to induce colitis and intestinal fibrosis
- interstitial fibrosis compared to vehicle control group 1M (in words) ([2]; group 2M: 15 mg/kg s.c., 3 times a week for 3 weeks, P<0.01, five weeks post-infarction): significant suppression of myocardial infarction induced interstitial fibrosis; also recorded: significantly decreased fibrosis
- extent of interstitial fibrosis (area of interstitial fibrosis as percent of the total area of the left ventricle) ([2]; group 2M: 15 mg/kg s.c., 3 times a week for 3 weeks, female SD rats, margin zone of infarct, day 36 after MI, vehicle group 1M 22.7±1.9%): 11.9±0.9%
- extent of interstitial fibrosis compared to vehicle control group 1M (in words) ([2]; groups 3M-5M: 15 mg/kg s.c. 3 times a week for 1 week, 15 mg/kg single dose, 3 mg/kg 3 times a week for 1 week, day 36 after MI): also lower in the other dextran sulfate treated groups 3M-5M, although the difference was not significant

— patent publication US10478451B2, “Use of dextran sulfate” (TX Medic AB, priority 2015, dated 2019)
